Test system: HIV-1
Assay: inhibition of HIV-1; reduction of cytopathogenic effect in virus-infected Leu-3a-positive CEM cells (MTT assay)
Assay type: cell-based, strain HTVL-IIIB
Conditions: Human immunodeficiency virus 1, CCRF-CEM, multiplicity of infection 0.1, MTT read on 7th to 9th day post-infection
Method: Inhibitory activity against HIV-1 was shown by tests involving plating of susceptible human host cells which are syncytium-sensitive with and without virus in microculture plates, adding various concentrations of the test compound, incubating the plates for 7 to 9 days (during which time infected, non-drug treated control cells are largely or totally destroyed by the virus), and then determining the remaining number of viable cells with a colorometric endpoint.
Various illustrative compounds synthesized above were tested for inhibition of HIV-1 in a test which measured reduction of cytopathogenic effect in virus-infected syncytium-sensitive Leu-3a-positive CEM cells grown in tissue culture as follows:
Tissue culture plates were incubated at 37° C. in a humidified, 5% CO2 atmosphere and observed microscopically for toxicity and/or cytopathogenic effect (CPE). At 1 hour prior to infection each test article was prepared from the frozen stock, and a 20 μl volume of each dilution (prepared as a 10× concentration) was added to the appropriate wells of both infected and uninfected cells.
Assays were done in 96-well tissue culture plates. CEM cells were treated with polybrene at a concentration of 2 μg/ml, and an 80 μl volume of cells (1×10^4 cells) was dispensed into each well. A 100 μl volume of each test article dilution (prepared as a 2× concentration) was added to 5 wells of cells, and the cells were incubated at 37° C. for 1 hour. A frozen culture of HIV-1, strain HTVL-IIIB, was diluted in culture medium to a concentration of 5×10^4 TCID50 per ml, and a 20 μl volume (containing 10^3 TCID50 of virus) was added to 3 of the wells for each test article concentration. […] A 20 μl volume of normal culture medium was added to the remaining wells to allow evaluation of cytotoxicity. Each plate contained 6 wells of untreated, uninfected, cell control samples and 6 wells of untreated, infected, virus control samples.
On the 7th to 9th day post-infection, the cells in each well were resuspended and a 100 μl sample of each cell suspension was removed for use in an MTT assay. A 20 μl volume of a 5 mg/ml solution of 3-(4,5-dimethylthiazol-2-yl)-2,5-diphenyltetrazolium bromide (MTT) was added to each 100 μl cell suspension, and the cells were incubated at 37° C. in 5% CO2 for 4 hours. […] A 100 μl volume of a solution of 10% sodium dodecyl sulfate in 0.01N hydrochloric acid was added to each sample, and the samples were incubated overnight. The absorbance at 590 nm was determined for each sample using a Molecular Devices Vmax microplate reader. This assay detects drug-induced suppression of viral CPE, as well as drug cytotoxicity, by measuring the generation of MTT-formazan by surviving cells.

SMILES: COCCCCCCCCCCCC(=O)O [Example 1, 12-Methoxydodecanoic Acid]
- EC50: 4.3 µM

SMILES: COCCCCCCCOCCCC(=O)O [Example 5, 4-[(7-Methoxyheptyl)oxy]butanoic Acid]
- EC50: > 430 µM

SMILES: CCCCCCCCCCOCCC#N [Example 6, 3-(Decyloxy)propanenitrile]
- EC50: > 470 µM

SMILES: CCCCCCCCCCOCCC(=O)O [Example 7, 3-(Decyloxy)propanoic Acid]
- EC50: 18.7 µM

SMILES: COCCCCCCCCCCCC(=O)OC [Example 8, Methyl 12-Methoxydodecanoate]
- EC50: 6.1 µM

SMILES: CCOC(=O)CCCCCCCCCCCOC [Example 9, Ethyl 12-Methoxydodecanoate]
- EC50: 16.6 µM

SMILES: COCCCCCCCCCCCC(N)=O [Example 12, 12-Methoxydodecanamide]
- EC50: 192 µM

SMILES: COCCCCCCCCCCCC(N)=S [Example 13, 12-Methoxydodecanethioamide]
- EC50: > 400 µM

SMILES: CCN(CC)C(=O)CCCCCCCCCCCOC [Example 15, N,N-Diethyl-12-methoxydodecanamide]
- EC50: > 350 µM

SMILES: COCCCCCCCCCCCC(=O)NCCc1ccccc1 [Example 16, 12-Methoxy-N-(2-phenylethyl) dodecanamide]
- EC50: 4.5 µM

SMILES: CCCCCCCCCCOCCC(=O)N(CC)CC [Example 19, 3-(Decyloxy)-N,N-diethylpropanamide]
- EC50: > 350 µM

SMILES: CCCCCCCCCCOCCC(=O)NCc1ccccc1 [Example 20, 3-(Decyloxy)-N-(phenylmethyl)propanamide]
- EC50: > 310 µM

SMILES: CCOC(=O)CNC(=O)CCCCCCCCCCCOC [Example 21, N-(12-Methoxy-1-oxododecyl)-glycine, Ethyl ester]
- EC50: 8.6 µM

SMILES: CCOC(=O)CN(Cc1ccccc1)C(=O)CCCCCCCCCCCOC [Example 22, N-(12-Methoxy-1-oxododecyl)-N-(phenylmethyl)-glycine, Ethyl ester]
- EC50: > 245 µM

SMILES: COCCCCCCCCCCCC(=O)NCC(=O)OC(C)(C)C [Example 23]
- EC50: 9.3 µM

SMILES: CCOC(=O)CNC(=O)CNC(=O)CCCCCCCCCCCOC [Example 24, N-[N-(12-Methoxy-1-oxododecyl)glycyl]glycine, Ethyl ester]
- EC50: > 260 µM

SMILES: CCOC(=O)CN(CC(=O)OCC)C(=O)CCCCCCCCCCCOC [Example 25, N-(2-Ethoxy-2-oxoethyl)-N-(12-methoxy-1-oxododecyl)glycine, Ethyl ester]
- EC50: > 240 µM

SMILES: CCOC(=O)CN(C)C(=O)CCCCCCCCCCCOC [Example 26, N-(12-Methoxy-1-oxododecyl)-N-methylglycine, Ethyl ester]
- EC50: > 300 µM

SMILES: CCOC(=O)CN(C(=O)CCCCCCCCCCCOC)c1ccccc1 [Example 28, N-(12-Methoxy-1-oxododecyl)-N-phenylglycine, Ethyl ester]
- EC50: > 250 µM

SMILES: CCCCCCCCCCOCCC(=O)NCC(=O)OCC [Example 29, N-[3-(Decyloxy)-1-oxopropyl]glycine, Ethyl ester]
- EC50: > 315 µM

SMILES: CCOC(=O)CCNC(=O)CCCCCCCCCCCOC [Example 30, N-(12-Methoxy-1-oxododecyl)-β-alanine, Ethyl ester]
- EC50: 6.1 µM

SMILES: CCOC(=O)[C@H](C)NC(=O)CCCCCCCCCCCOC [Example 31, N-(12-Methoxy-1-oxododecyl)-L-alanine, Ethyl ester]
- EC50: 24 µM

SMILES: CCOC(=O)[C@@H](C)NC(=O)CCCCCCCCCCCOC [Example 34, N-(12-Methoxy-1-oxododecyl)-D-alanine, Ethyl ester]
- EC50: > 300 µM

SMILES: CCOC(=O)C(C)CNC(=O)CCCCCCCCCCCOC (centres unmarked) [Example 36, Ethyl 2-[[(12-methoxy-1-oxododecyl)amino]-2-methyl]propanoate]
- EC50: 5.8 µM

SMILES: CCOC(=O)[C@H](C)CNC(=O)CCCCCCCCCCCOC [Example 39, Ethyl 3-[[(12-methoxy-1-oxododecyl)amino]-2R-methyl]propanoate]
- EC50: 6.7 µM

SMILES: CCOC(=O)C(CNC(=O)CCCCCCCCCCCOC)Cc1ccccc1 (stereo not drawn) [Example 42, Ethyl α-[[(12-Methoxy-1-oxododecyl)amino]methyl]benzenepropanoate]
- EC50: 6.4 µM

— patent US5929110A, “Fatty acid analogs and prodrugs” (G. D. Searle & Co., priority 1998, dated 1999)
